Reference: patent US7700763B2, “3-triazolyl-galactoside inhibitors of galectins” (Forskarpatent I Syd AB, priority 2004, dated 2010)
Like-named read-outs stand apart in the source and are kept apart here.

Tests used:
galectins = conditions: cited from earlier work
[1] = target: T1, Recombinant human galectin-3 (Homo sapiens, UniProt P17931); assay: fluorescence polarization-based galectin-3 inhibition assay; type: binding
T1 construct: made in house; host or cells: Escherichia coli
Experimental: NMR-spectra were recorded with a Bruker DRX-400 instrument. Chemical shifts are given in ppm, with reference to internal residual solvent peaks. Chemical shifts and coupling constants were obtained from ^1H-NMR and proton resonances were assigned from COSY experiments. High-resolution FAB mass spectra (HRMS) were recorded with a JEOL SX-120 instrument. Fluorescence polarization experiments were performed on a PolarStar instrument (BMG, Offenburg; Germany). Column chromatography was performed on SiO2 (Matrex, 60 Å, 35-70 μm, Grace Amicon) and TLC was carried out on SiO2 60 F254 (Merck) with detection under UV light and developed with aqueous sulfuric acid. Concentrations were made using rotary evaporation with bath temperature at or below 40° C. CH2Cl2 and CH3CN were dried by distillation from CaH2. Microwell plates were from Costar, Corning, N.Y. (black polystyrene). Recombinant human galectin-3 was produced in Escherichia coli and purified as previously described (S. M. Massa et al, 1993). PBS was 118 mM NaCl, 67 mM Na/K-phosphate, pH 7.2, 2 mM EDTA, 4 mM β-mercaptoethanol.
To 100 μL of galectin-3 (1 μM) and a fluorescent probe (2-(fluorescein-5/6-yl-carbonyl)-aminoethyl 4-O-[3-O-(4-methoxy]benzyl)-β-D-galactopyranosyl]-β-D-glucopyranoside, 0.1 μM) were added inhibitor solution (3.2-10000 μM, 100 μL), the plate was incubated under slow rotary shaking in the dark for 5 minutes, and fluorescence polarization measured at room temperature. The fluorescence was measured from above in 96 well microtiter plates (black polystyrene, Costar, Corning, N.Y.) using a PolarStar instrument (BMG, Offenburg; Germany). Control wells containing only fluorescent probe or fluorescein were included. All dilutions and measurements were done in PBS.

[2] = galectin-3, fluorescence polarization

T1 sequence (P17931 whole entry): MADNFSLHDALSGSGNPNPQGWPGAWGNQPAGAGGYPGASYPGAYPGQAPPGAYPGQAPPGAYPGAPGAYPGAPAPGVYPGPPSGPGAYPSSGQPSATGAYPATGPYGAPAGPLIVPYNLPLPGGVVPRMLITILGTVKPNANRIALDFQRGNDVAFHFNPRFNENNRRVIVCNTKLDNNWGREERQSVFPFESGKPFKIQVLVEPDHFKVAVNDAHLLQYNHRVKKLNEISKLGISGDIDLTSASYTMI

Row | SMILES | Kd ([1]; read-out: Calculated Kd) [nM] | further results
1 | OC[C@H]1O[C@@H](O[C@H]2[C@H](O)[C@@H](O)C(O)O[C@@H]2CO)[C@H](O)[C@@H](O)[C@H]1O (some centres unmarked) [lactose] | – | Kd (galectins; all galectins, reviewed by Leffler, 2001 and Leffler et al., 2004): 500 to 1000 µM
2 | CS[C@@H]1O[C@H](CO)[C@H](O)[C@H](n2cc(S(=O)(=O)c3ccc(C)cc3)nn2)[C@H]1O [Compound 13, Methyl 3-deoxy-3-(4-p-tolylsulfonyl-1H-[1,2,3]-triazol-1-yl)-1-thio-β-D-galactopyranoside] | 141000 | improvement in Kd in comparison with the reference inhibitor 27 [1, 2]: 50 fold
3 | O=C[C@H](O)[C@@H](O)[C@@H](O)[C@H](O)CO [D-galactose] | – | affinity lower than lactose (galectins; galectins, relative to lactose): 50-100 times
4 | CCCc1cn([C@H]2[C@@H](O)[C@@H](CO)O[C@@H](SC)[C@@H]2O)nn1 [Compound 9, Methyl 3-deoxy-3-(4-propyl-1H-[1,2,3]-triazol-1-yl)-1-thio-β-D-galactopyranoside] | 4.62e+06 | –
5 | CS[C@@H]1O[C@H](CO)[C@H](O)[C@H](n2cc(C3(O)CCCCC3)nn2)[C@H]1O [Compound 11, Methyl 3-deoxy-3-(4-(1-hydroxy-1-cyclohexyl)-1H-[1,2,3]-triazol-1-yl)-1-thio-β-D-galactopyranoside] | 1.38e+06 | –
6 | CS[C@@H]1OC(CO)[C@H](O)C(n2cc(C(=O)NCCN3CCOCC3)nn2)C1O (stereo partly drawn) [Compound 18, Methyl 3-{4-[2-(N-morpholino)-ethylaminocarbonyl]-1H-[1,2,3]-triazol-1-yl}-3-deoxy-1-thio-β-D-galactopyranoside] | 571000 | –
7 | CCCCNC(=O)c1cn(C2C(O)[C@H](SC)OC(CO)[C@@H]2O)nn1 (stereo partly drawn) [Compound 15, Methyl 3-(4-butylaminocarbonyl-1H-[1,2,3]-triazol-1′-yl)-3-deoxy-1-thio-β-D-galactopyranoside] | 124000 | improvement in Kd in comparison with the reference inhibitor 27 [1, 2]: 50 fold
8 | CS[C@@H]1O[C@H](CO)[C@H](O)[C@H](n2ccnn2)[C@H]1O [Compound 8, Methyl 3-deoxy-3-(1H-[1,2,3]-triazol-1-yl)-1-thio-β-D-galactopyranoside] | 2.1e+07 | –
9 | CS[C@@H]1O[C@H](CO)[C@H](O)[C@H](n2cc(C(=O)NCCCO)nn2)[C@H]1O [Compound 17, Methyl 3-{4-(3-hydroxyprop-1-ylaminocarbonyl)-1H-[1,2,3]-triazol-1-yl}-3-deoxy-1-thio-β-D-galactopyranoside] | 386000 | –
10 | COC(=O)c1cn([C@H]2[C@@H](O)[C@@H](CO)O[C@@H](SC)[C@@H]2O)nn1 [Compound 10, Methyl 3-(4-methoxycarbonyl-1H-[1,2,3]-triazol-1-yl)-3-deoxy-1-thio-β-D-galactopyranoside] | 1.41e+06 | –
11 | CS[C@@H]1O[C@H](CO)[C@H](O)[C@H](n2cc(-c3ccccc3)nn2)[C@H]1O [Compound 12, Methyl 3-deoxy-3-(4-phenyl-1H-[1,2,3]-triazol-1-yl)-1-thio-β-D-galactopyranoside] | 147000 | improvement in Kd in comparison with the reference inhibitor 27 [1, 2]: 50 fold
12 | CNC(=O)c1cn([C@H]2[C@@H](O)[C@@H](CO)O[C@@H](SC)[C@@H]2O)nn1 [Compound 14, Methyl 3-(4-methylaminocarbonyl-1H-[1,2,3]-triazol-1-yl)-3-deoxy-1-thio-β-D-galactopyranoside] | – | Kd ([1]; affinity for galectin-3 calculated from test by fluorescence polarization at one tested conc., galectin-3 1 μM, probe 0.1 μM, PBS, room temperature, read-out: Calculated Kd): 230000 nM
13 | CS[C@@H]1O[C@H](CO)[C@H](O)[C@H](n2cc(C(=O)NCc3ccccc3)nn2)[C@H]1O [Compound 16, Methyl 3-(4-benzylaminocarbonyl-1H-[1,2,3]-triazol-1-yl)-3-deoxy-1-thio-β-D-galactopyranoside] | – | improvement in Kd in comparison with the reference inhibitor 27 [1, 2]: 50 fold
14 | CNC(=O)c1cn([C@H]2[C@@H](O)[C@@H](CO)O[C@@H](S[C@@H]3O[C@H](CO)[C@H](O)[C@H](n4cc(C(=O)NC)nn4)[C@H]3O)[C@@H]2O)nn1 [Compound 26, Bis-(3-deoxy-3-{4-[(methylamino)carbonyl]-1H-1,2,3-triazol-1-yl}-β-D-galactopyranosyl)sulfane] | – | Kd ([1]; galectin-3, fluorescence polarization, value given in text in nM, read-out: Kd): 150 nM
